Results on 12 molecules are retold here after PubChem BioAssay (NCI).

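Briefly, cells in 96-well plates were exposed to five compound concentrations for 48 h, and endpoints were estimated by linear interpolation. GI50: concentration for 50% inhibition of growth. TGI: concentration producing complete growth inhibition.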

For orientation: TGI means the concentration at which net growth stops. A lower TGI goes with more potent growth arrest. Usually GI50 stands for the concentration that inhibits growth by half.

Among the test systems are OVCAR-8 ovarian; COLO 205 colon; HCT-15 colon; OVCAR-4 ovarian; MALME-3M melanoma; LOX IMVI melanoma; EKVX NSCLC; 786-0 renal; SK-MEL-28 melanoma; HOP-18 NSCLC; DLD-1 colon; DMS 273 small cell lung.
What all share (test): DTP human tumour cell line panel, 48 h

Turning to `CCCO[C@@H]1[C@@H](OC(C)=O)[C@@H](OC(C)=O)C(C)(C)/C=C/[C@H](C)C(=O)[C@@]2(OC(C)=O)C[C@@](C)(OC(C)=O)[C@H](OC(C)=O)[C@@H]2[C@H]2OC(=O)CC[C@@]12OC(=O)c1ccccc1`, the TGI in the assay on OVCAR-8 ovarian, in the assay with COLO 205 colon, in the assay on HCT-15 colon, in the assay on OVCAR-4 ovarian, in the assay on MALME-3M melanoma and in the assay with LOX IMVI melanoma was > 25 µM throughout. The TGI with EKVX NSCLC was > 25 µM.

For `C(=Nc1ccc2c(c1)Cc1ccccc1-2)c1ccccn1`, the TGI in the assay with OVCAR-8 ovarian, with HCT-15 colon, in the assay on OVCAR-4 ovarian, in the assay on MALME-3M melanoma, with 786-0 renal and with LOX IMVI melanoma was > 100 µM each time. The TGI in the assay on EKVX NSCLC and in the assay with SK-MEL-28 melanoma was > 100 µM in each case.

Regarding `COc1ccc(/C=N/n2cnc3c(c2=O)SC(=C(C#N)C#N)N3c2ccccc2)cc1`, the TGI with OVCAR-8 ovarian, with COLO 205 colon, with HOP-18 NSCLC, in the assay with DLD-1 colon and with SK-MEL-28 melanoma was > 100 µM each time.

For the molecule `CCC(=O)OCN(C)c1nc(N(C)COC(=O)CC)nc(N(C)COC(=O)CC)n1`, the TGI was > 100 µM with OVCAR-8 ovarian; 59.2 µM in the assay with COLO 205 colon; 56 µM in the assay on HCT-15 colon; > 100 µM in the assay on OVCAR-4 ovarian; > 100 µM with MALME-3M melanoma; 70.3 µM with LOX IMVI melanoma. The TGI in the assay with SK-MEL-28 melanoma was > 100 µM.

Consider `O=C1c2ccccc2OCC12OC21C=CC(Cl)=CC1` (configuration not stated), for which the TGI in the assay with COLO 205 colon worked out at 33.4 µM; in the assay on HCT-15 colon, 86.5 µM; with OVCAR-4 ovarian it was 46.4 µM; with MALME-3M melanoma, 44.8 µM; in the assay on LOX IMVI melanoma, 30.4 µM; in the assay on EKVX NSCLC it was 51.8 µM. Further, the TGI with SK-MEL-28 melanoma turned out to be 67.4 µM.

Turning to `CCCCC1C=Cn2c(=O)oc3c(OC(C)C)c(C)c(O)c1c32` (configuration not stated), the total growth inhibition concentration (TGI) in the assay with OVCAR-8 ovarian is 11.4 µM; in the assay with COLO 205 colon, 9.97 µM; in the assay with HCT-15 colon it was 12.4 µM; in the assay with OVCAR-4 ovarian, 2.37 µM; in the assay on MALME-3M melanoma it was 4.1 µM; with LOX IMVI melanoma, 5.52 µM. Moreover, the results for the TGI in the assay on EKVX NSCLC and in the assay on SK-MEL-28 melanoma were 6.83 µM and 8.33 µM, respectively.

As for `Nc1nc(SCc2ccccc2Cl)c2[nH]cnc2n1`, the TGI in the assay on OVCAR-8 ovarian, with COLO 205 colon, in the assay on DMS 273 small cell lung, with HCT-15 colon, in the assay on MALME-3M melanoma and with LOX IMVI melanoma was > 100 µM throughout. Moreover, the TGI in the assay on DLD-1 colon, in the assay on EKVX NSCLC and in the assay on SK-MEL-28 melanoma was > 100 µM each time.

Consider `CCOC(=O)c1sc2nc(SC)nc(Nc3ccc4c(c3)OCCO4)c2c1N`, for which the TGI was 23.1 µM in the assay with OVCAR-8 ovarian; > 100 µM with COLO 205 colon; 30.8 µM with OVCAR-4 ovarian; 30.5 µM in the assay on MALME-3M melanoma; > 100 µM with LOX IMVI melanoma; 26.6 µM in the assay with EKVX NSCLC. In the assay with SK-MEL-28 melanoma, the TGI is > 100 µM.

For the molecule `O=C(CBr)c1ccc2cc(Br)c3ccccc3c2c1`, the TGI in the assay with OVCAR-8 ovarian is 55.8 µM; with COLO 205 colon it was > 100 µM; in the assay with HCT-15 colon, > 100 µM; in the assay on OVCAR-4 ovarian, 58.9 µM; in the assay on MALME-3M melanoma, 34.4 µM; in the assay on 786-0 renal, > 100 µM. In addition, the results for the total growth inhibition concentration (TGI) with LOX IMVI melanoma, in the assay on EKVX NSCLC and in the assay on SK-MEL-28 melanoma were > 100 µM, 54.5 µM and 57.5 µM, respectively.

For the molecule `C=CCCC1(C)CCCNC1=S` (configuration not stated), the TGI in the assay on OVCAR-8 ovarian, in the assay on COLO 205 colon, with DMS 273 small cell lung, in the assay with HCT-15 colon, with HOP-18 NSCLC and in the assay with OVCAR-4 ovarian was > 100 µM throughout. The TGI in the assay on MALME-3M melanoma, in the assay with LOX IMVI melanoma, in the assay with DLD-1 colon, in the assay on EKVX NSCLC and in the assay with SK-MEL-28 melanoma was > 100 µM throughout.

On to `CCCn1cnc2c(SCc3ccc(Cl)cc3)nc(N)nc21`, for which the TGI in the assay on OVCAR-8 ovarian is > 100 µM; in the assay on HCT-15 colon it was > 100 µM; in the assay on OVCAR-4 ovarian, > 100 µM; with MALME-3M melanoma it was 65.8 µM; with 786-0 renal, > 100 µM; with LOX IMVI melanoma it was 50.8 µM. Besides, the TGI turned out to be 43.5 µM in the assay on EKVX NSCLC and 83.4 µM in the assay on SK-MEL-28 melanoma.

Regarding `O=C(N[C@@H](Cc1coc2ccccc12)B(O)O)[C@@H]1C[C@H]2CC[C@@H]1O2`, the GI50 was 80.8 µM in the assay on OVCAR-8 ovarian; 23.1 µM in the assay on COLO 205 colon; 4.54 µM in the assay on HCT-15 colon; 7.36 µM in the assay with OVCAR-4 ovarian; 3.07 µM with MALME-3M melanoma; 5.21 µM with LOX IMVI melanoma. In addition, the results for the GI50 in the assay with EKVX NSCLC and with SK-MEL-28 melanoma were 22.7 µM and 4.5 µM, respectively. Besides, the TGI was > 100 µM with OVCAR-8 ovarian; > 100 µM with COLO 205 colon; 84.9 µM in the assay on HCT-15 colon; > 100 µM in the assay on OVCAR-4 ovarian; 20.8 µM with MALME-3M melanoma; 34.5 µM in the assay on LOX IMVI melanoma. Also, the concentration for total growth inhibition (TGI) with EKVX NSCLC and in the assay on SK-MEL-28 melanoma was > 100 µM throughout.
